# Laboratory results reported in PubChem BioAssay (NCI).
#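 Compound exposure: 48 hours, 5 concentrations, 96-well plates. At the GI50, growth is halved. The concentration for full growth arrest is given as TGI.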
# How the values were obtained:
# Assay in all cases: DTP human tumour cell line panel, 48 h
# NCI-H23 lung = tested on: NCI-H23 lung
# SNB-75 CNS = tested on: SNB-75 CNS
# SK-MEL-28 melanoma = tested on: SK-MEL-28 melanoma
# PC-3 prostate = tested on: PC-3 prostate
# UACC-62 melanoma = tested on: UACC-62 melanoma
# HCC-2998 colon = tested on: HCC-2998 colon
# MDA-MB-231 breast = tested on: MDA-MB-231 breast
# HCT-116 colon = tested on: HCT-116 colon
# KM12 colon = tested on: KM12 colon
# SK-OV-3 ovarian = tested on: SK-OV-3 ovarian
# LOX IMVI melanoma = tested on: LOX IMVI melanoma
# EKVX NSCLC = tested on: EKVX NSCLC
# K-562 leukemia = tested on: K-562 leukemia
# HS 578T breast = tested on: HS 578T breast
# NCI-H460 lung = tested on: NCI-H460 lung
# OVCAR-4 ovarian = tested on: OVCAR-4 ovarian
# MCF7 breast = tested on: MCF7 breast
# SK-MEL-2 melanoma = tested on: SK-MEL-2 melanoma
# T-47D breast = tested on: T-47D breast
# MOLT-4 leukemia = tested on: MOLT-4 leukemia
# NCI-H522 lung = tested on: NCI-H522 lung
# A549 NSCLC = tested on: A549 NSCLC
# MALME-3M melanoma = tested on: MALME-3M melanoma
# U251 CNS = tested on: U251 CNS
# DU-145 prostate = tested on: DU-145 prostate
# UO-31 renal = tested on: UO-31 renal
# CCRF-CEM leukemia = tested on: CCRF-CEM leukemia
# SR leukemia = tested on: SR leukemia
# NCI-H226 lung = tested on: NCI-H226 lung
# BT-549 breast = tested on: BT-549 breast
# COLO 205 colon = tested on: COLO 205 colon
# MDA-MB-435 = tested on: MDA-MB-435
# A498 renal = tested on: A498 renal
# 786-0 renal = tested on: 786-0 renal
# HL-60(TB) leukemia = tested on: HL-60(TB) leukemia
# IGROV1 ovarian = tested on: IGROV1 ovarian
# RXF 393 renal = tested on: RXF 393 renal
# HCT-15 colon = tested on: HCT-15 colon
# SN12C renal = tested on: SN12C renal
# OVCAR-8 ovarian = tested on: OVCAR-8 ovarian
# SF-268 CNS = tested on: SF-268 CNS
# M14 melanoma = tested on: M14 melanoma
# CAKI-1 renal = tested on: CAKI-1 renal
# UACC-257 melanoma = tested on: UACC-257 melanoma
# SF-539 CNS = tested on: SF-539 CNS
# SF-295 CNS = tested on: SF-295 CNS
# HOP-62 NSCLC = tested on: HOP-62 NSCLC
# TK-10 renal = tested on: TK-10 renal
# RPMI-8226 leukemia = tested on: RPMI-8226 leukemia
# SNB-19 CNS = tested on: SNB-19 CNS
# OVCAR-3 ovarian = tested on: OVCAR-3 ovarian
# NCI/ADR-RES ovarian = tested on: NCI/ADR-RES ovarian
# HOP-92 NSCLC = tested on: HOP-92 NSCLC
# SK-MEL-5 melanoma = tested on: SK-MEL-5 melanoma
# ACHN renal = tested on: ACHN renal
# OVCAR-5 ovarian = tested on: OVCAR-5 ovarian
# HT29 colon = tested on: HT29 colon
# SW-620 colon = tested on: SW-620 colon
compound,measurement,setting,value
CN1CCN(c2ccc(NC(=O)Nc3ccc4c(ccn4-c4cccc(C(N)=O)n4)c3)cc2C(F)(F)F)CC1,GI50,NCI-H23 lung,7.61 µM
same,TGI,NCI-H23 lung,19.3 µM
same,GI50,SNB-75 CNS,5.06 µM
same,TGI,SNB-75 CNS,11.9 µM
same,GI50,SK-MEL-28 melanoma,0.939 µM
same,TGI,SK-MEL-28 melanoma,1.91 µM
same,GI50,PC-3 prostate,3.34 µM
same,TGI,PC-3 prostate,11 µM
same,GI50,UACC-62 melanoma,5.65 µM
same,TGI,UACC-62 melanoma,13.8 µM
same,GI50,HCC-2998 colon,6.28 µM
same,TGI,HCC-2998 colon,14 µM
same,GI50,MDA-MB-231 breast,6.53 µM
same,TGI,MDA-MB-231 breast,19.1 µM
same,GI50,HCT-116 colon,0.858 µM
same,TGI,HCT-116 colon,1.84 µM
same,GI50,KM12 colon,2.25 µM
same,TGI,KM12 colon,9.23 µM
same,GI50,SK-OV-3 ovarian,7.14 µM
same,TGI,SK-OV-3 ovarian,13.8 µM
same,GI50,LOX IMVI melanoma,0.969 µM
same,TGI,LOX IMVI melanoma,2.03 µM
same,GI50,EKVX NSCLC,6.9 µM
same,TGI,EKVX NSCLC,16.3 µM
same,GI50,K-562 leukemia,0.938 µM
same,TGI,K-562 leukemia,2.17 µM
same,GI50,HS 578T breast,2.68 µM
same,TGI,HS 578T breast,12.5 µM
same,GI50,NCI-H460 lung,1.74 µM
same,TGI,NCI-H460 lung,5.88 µM
same,GI50,OVCAR-4 ovarian,8.09 µM
same,TGI,OVCAR-4 ovarian,21.9 µM
same,GI50,MCF7 breast,0.878 µM
same,TGI,MCF7 breast,2.02 µM
same,GI50,SK-MEL-2 melanoma,5.17 µM
same,TGI,SK-MEL-2 melanoma,12.4 µM
same,GI50,T-47D breast,9.33 µM
same,TGI,T-47D breast,22.8 µM
same,GI50,MOLT-4 leukemia,1.02 µM
same,TGI,MOLT-4 leukemia,2.24 µM
same,GI50,NCI-H522 lung,10.1 µM
same,TGI,NCI-H522 lung,20.8 µM
same,GI50,A549 NSCLC,5.2 µM
same,TGI,A549 NSCLC,13.3 µM
same,GI50,MALME-3M melanoma,1.37 µM
same,TGI,MALME-3M melanoma,3.79 µM
same,GI50,U251 CNS,1.33 µM
same,TGI,U251 CNS,6.64 µM
same,GI50,DU-145 prostate,5.97 µM
same,TGI,DU-145 prostate,14.5 µM
same,GI50,UO-31 renal,7.38 µM
same,TGI,UO-31 renal,15.6 µM
same,GI50,CCRF-CEM leukemia,1.4 µM
same,TGI,CCRF-CEM leukemia,3.18 µM
same,GI50,SR leukemia,0.929 µM
same,TGI,SR leukemia,2.48 µM
same,GI50,NCI-H226 lung,8.61 µM
same,TGI,NCI-H226 lung,20.4 µM
same,GI50,BT-549 breast,5.21 µM
same,TGI,BT-549 breast,12.5 µM
same,GI50,COLO 205 colon,5.91 µM
same,TGI,COLO 205 colon,15.4 µM
same,GI50,MDA-MB-435,1.13 µM
same,TGI,MDA-MB-435,2.82 µM
same,GI50,A498 renal,7.74 µM
same,TGI,A498 renal,14.8 µM
same,GI50,786-0 renal,0.834 µM
same,TGI,786-0 renal,2 µM
same,GI50,HL-60(TB) leukemia,5.59 µM
same,TGI,HL-60(TB) leukemia,13.5 µM
same,GI50,IGROV1 ovarian,9.04 µM
same,TGI,IGROV1 ovarian,20.4 µM
same,GI50,RXF 393 renal,1.06 µM
same,TGI,RXF 393 renal,2.5 µM
same,GI50,HCT-15 colon,1.66 µM
same,TGI,HCT-15 colon,7.33 µM
same,GI50,SN12C renal,8.1 µM
same,TGI,SN12C renal,18.5 µM
same,GI50,OVCAR-8 ovarian,10.1 µM
same,TGI,OVCAR-8 ovarian,25.1 µM
same,GI50,SF-268 CNS,6.71 µM
same,TGI,SF-268 CNS,18 µM
same,GI50,M14 melanoma,0.991 µM
same,TGI,M14 melanoma,2.21 µM
same,GI50,CAKI-1 renal,6.47 µM
same,TGI,CAKI-1 renal,13.5 µM
same,GI50,UACC-257 melanoma,1.11 µM
same,TGI,UACC-257 melanoma,2.66 µM
same,GI50,SF-539 CNS,1.92 µM
same,TGI,SF-539 CNS,8.07 µM
same,GI50,SF-295 CNS,0.969 µM
same,TGI,SF-295 CNS,2.15 µM
same,GI50,HOP-62 NSCLC,5.89 µM
same,TGI,HOP-62 NSCLC,12.9 µM
same,GI50,TK-10 renal,8.51 µM
same,TGI,TK-10 renal,16.3 µM
same,GI50,RPMI-8226 leukemia,1.17 µM
same,TGI,RPMI-8226 leukemia,2.65 µM
same,GI50,SNB-19 CNS,5.99 µM
same,TGI,SNB-19 CNS,16.4 µM
same,GI50,OVCAR-3 ovarian,8.35 µM
same,TGI,OVCAR-3 ovarian,16.4 µM
same,GI50,NCI/ADR-RES ovarian,9.47 µM
same,TGI,NCI/ADR-RES ovarian,24.2 µM
same,GI50,HOP-92 NSCLC,6.91 µM
same,TGI,HOP-92 NSCLC,15.8 µM
same,GI50,SK-MEL-5 melanoma,0.964 µM
same,TGI,SK-MEL-5 melanoma,2.08 µM
same,GI50,ACHN renal,6.95 µM
same,TGI,ACHN renal,14.1 µM
same,GI50,OVCAR-5 ovarian,7.54 µM
same,TGI,OVCAR-5 ovarian,17 µM
same,GI50,HT29 colon,1.29 µM
same,TGI,HT29 colon,5.5 µM
same,GI50,SW-620 colon,1.27 µM
same,TGI,SW-620 colon,2.91 µM
